Measurements: patent US7282484B2, “Anti-tumor agents” (Point Therapeutics, Inc., priority 1999, dated 2007)
Several values for one entry are separate records, joined by “and”; a condition that tells them apart may be missing. Equal values may be shown once.

Legend:
[1] = test system: DPPIV-like activity of Fischer D+ and D− rat BM stromal cells; test: DPPIV-like activity assay on rat bone marrow stromal cells; type: cell-based
Procedure: (§1) Cell Source. 8-12 week old female wild type CD26 positive (D^+) and CD26 negative (D^−) Fischer rat (Charles River Labs, Japan) bone marrow.
(§2) Bone marrow preparation. Bone marrow was flushed from each femur, tibia and fibula with Dulbecco's phosphate buffered saline (D-PBS) using a 21-gauge needle and a 10 ml syringe. After removal, the bone marrow was immediately aspirated through the needle to make a single cell suspension. The cells were washed twice with sterile PBS and resuspended in MyeloCult H5100 long-term culture (LTC) media, available from Stem Cell Technologies, and supplemented with freshly diluted 10^−6 M hydrocortisone, available from Sigma.
Establishment of adherent bone marrow stromal cell cultures. […]
DPPIV-like activity assay. […] The reaction was stopped by removing the substrate solution from each well and measured in the fluorescence spectrophotometer or stored −20° C. Activity was measured using an excitation wavelength of 400 nm and emission wavelength of 505 nm.
Bone marrow stromal cells were established from the long bones of Fischer D^+ and D^− rats and cultured for 2 days in the presence or absence of PT-100. […] DPPIV-like activity is presented as velocity and the percent of protease activity inhibition with PT-100 is calculated relative to a ‘no treatment’ control.

[2] = test system: Fischer D+ and D− rat bone marrow stromal cells; test: IL-6 release from rat bone marrow stromal cells (ELISA); type: cell-based; conditions: 2 days incubation
Procedure: as §1, §2
Establishment of adherent bone marrow stromal cell cultures. 1-2×10^7 cells were seeded into a T25 flask (Coming) containing 10 mls of LTC medium and incubated at 37° C. in 100% humidified 5% CO2 in air. After 1 week half the medium was exchanged for fresh medium and incubated for approximately 1 week until a confluent cell layer formed. PT-100 incubation. The adherent stromal cells were removed from the flask by trypsin-EDTA (Life Technologies, Inc.) digestion, washed once with sterile PBS and resuspended in long term culture medium at 1×10^5/ml. […]
Similar levels of IL-6 are secreted from bone marrow stromal cells of D^+ and D^− rats. […] IL-6 levels in the culture supernatant were determined by ELISA.

[3] = test system: FAP-α+ CD26− primary human stromal cells; test: G-CSF release from FAP-α+ CD26− primary human stromal cells (ELISA); type: cell-based; conditions: human bone marrow cells lacking CD26 but expressing FAP-α, 2 days incubation
Procedure: (§3) Cell source. Bone marrow was kindly donated by New England Medical Center, Boston, Mass. and Dr. Richard Benjamin from Brigham and Women's Hospital in Boston, Mass. Mononuclear cells were purified over Ficoll and used immediately or frozen in liquid nitrogen.
(§4) Establishment of human stromal feeder layer. 2 to 4×10^7 human bone marrow mononuclear cells were seeded into a T75 flask (Corning) containing 20 mls of LTC medium and incubated. at 37° C. in 100% humidified 5% CO2 in air. After 1 week half the medium was exchanged for fresh medium and incubated for approximately 1 week when a confluent cell layer formed.
ELISA of human cells. Cultured supernatants were assayed for a high sensitivity ELISA (R+D Systems).
PT-100 incubation, supernatant collection and DPPIV-like activity assay for human and rat cells were carried out in an identical manner.
The DPPIV-like activity associated with the intact cells was inhibited by-PT-100. Stromal cells were established from the bone marrow of a human volunteer as described in the materials and methods. The stromal cells were incubated for 2 days in the presence or absence of the indicated concentrations of PT-100 and cultured supernatants were assayed for IL-6 or DPPIV-like activity as described in Materials and Methods.

[4] = test system: DPPIV-like activity of FAP-α+ CD26− primary human stromal cells; test: DPPIV-like activity assay on FAP-α+ CD26− primary human stromal cells; type: cell-based; conditions: human stromal cells lacking CD26 but expressing FAP-α, 2 days incubation
Procedure: DPPIV-like activity assay. Following the removal of supernatant from the stromal cultures, the adherent cells were washed with D-PBS and assayed for DPPIV-like activity. The fluorogenic substrate Ala-Pro-AFC was diluted in DPPIV buffer (50 mM Hepes, 140 mM NaCl) from the original stock of 10 mM (stored at −20° C. as a solution in dimethyl-formamide) to 1 mM, directly before the assay. 30 μl of the 1 mM stock was added per ml of buffer and the stromal cells were incubated for 10 minutes with 1 ml per well of the diluted substrate. The reaction was stopped by removing the substrate solution from each well and measured in the fluorescence spectrophotometer or stored −20° C. Activity was measured using an excitation wavelength of 400 nm and emission wavelength of 505 nm.
as §3
as §4, with “formed. […]” for “formed.”

B16-F0 tumor = test: Established subcutaneous B16 melanoma in C57BL/6 mice; type: in vivo, mouse
Procedure: The highly metastic B16-F0 tumor was implanted subcutaneously (s.c.) in C57BL/6 mice. PT-100 administration was started on day 8 when palpable tumors were apparent. Tumor volumes were measured on days 8, 12, and 15. […] In the experiment of FIG. 4 each experimental group contained 10 animals.

WEHI-164 fibrosarcoma = test: Subcutaneous WEHI-164 fibrosarcoma in mice; type: in vivo, mouse
Procedure: Thus in the experiment of FIG. 5, the large reductions in tumor volume recorded were in part due to the absence of a palpable tumor in some of the mice:in each of the PT-100 treated groups (10 replicate animals per group). For example, in the mice treated with the 5 μg dose of PT-100 administered b.i.d., 6 of the animals were completely free of a detectable s.c. tumor. PT-100 treatment of the mice in the experimental groups was stopped on day 20, the day when the data of FIG. 5 were recorded.

[5] = administration started on day 2 after implantation

With `CC(C)[C@H](N)C(=O)N1CCC[C@H]1B(O)O` [PT-100, valine-proline-boronic acid] the “% Inhibition by 10^−6 M PT-100 of DPPIV-like activity” value ([1]; Fischer D− (CD26 negative) rat BM stromal cells, 2 days culture, 10^−6 M, relative to no treatment control) was 86.4% and 73.8% and 62.1%, the “Inhibition of DPPIV-like activity (in words)” value ([1]; rat bone marrow stromal cells which lack CD26) was “potently inhibited” and the “IL-6 levels in culture supernatant” value [2] was “enhanced”. For the same compound, the G-CSF release [3] was “potently stimulated”, the “Inhibition of DPPIV-like activity associated with the intact cells” value [4] was “inhibited” and the Tumor growth (B16-F0 tumor; 160 μg administered for two days, day 8 and day 9) was “effective in suppressing tumor growth”. The “Tumor growth compared with saline treated control mice” value (B16-F0 tumor; 10 and 40 μg p.o. b.i.d. from day 8 to 14, tumor volumes days 8, 12, 15) was “markedly inhibited”, the “Growth of B16 melanoma” value (B16-F0 tumor; administered orally, mice) was “significantly inhibits” and the “Animals completely free of a detectable s.c. tumor” value (WEHI-164 fibrosarcoma; 5 μg b.i.d., started day 2, recorded day 20, 10 animals per group) was 6 animals. The “Growth of WEHI-164 fibrosarcoma” value (WEHI-164 fibrosarcoma; administered orally, mice) was “significantly inhibits”, the Tumor growth (WEHI-164 fibrosarcoma; [5]) was “tumor growth inhibited” and the “Tumor necrosis and regression” value (WEHI-164 fibrosarcoma; [5]) was “a proportion of the tumors also became necrotic and apparently regressed completely”. For the same compound, the “Growth of an established s.c. tumor” value (WEHI-164 fibrosarcoma; established s.c. WEHI-164 tumor) was “could suppress the growth” and the “Tumor recurrence in mice recorded as tumor-free on day 20” value (WEHI-164 fibrosarcoma; treatment stopped on day 20, monitored up to day 30 after implantation) was “none of the mice recorded as tumor-free on day 20 has developed a detectable s.c. tumor”.
